The text below walks through data of PMC11096521 (Frontiers in Pharmacology, 2024).

The target of data set [1] is T1, BCRP (Homo sapiens, UniProt Q9UNQ0).
T1 construct: gene ABCG2
T1 sequence (Q9UNQ0 1-655): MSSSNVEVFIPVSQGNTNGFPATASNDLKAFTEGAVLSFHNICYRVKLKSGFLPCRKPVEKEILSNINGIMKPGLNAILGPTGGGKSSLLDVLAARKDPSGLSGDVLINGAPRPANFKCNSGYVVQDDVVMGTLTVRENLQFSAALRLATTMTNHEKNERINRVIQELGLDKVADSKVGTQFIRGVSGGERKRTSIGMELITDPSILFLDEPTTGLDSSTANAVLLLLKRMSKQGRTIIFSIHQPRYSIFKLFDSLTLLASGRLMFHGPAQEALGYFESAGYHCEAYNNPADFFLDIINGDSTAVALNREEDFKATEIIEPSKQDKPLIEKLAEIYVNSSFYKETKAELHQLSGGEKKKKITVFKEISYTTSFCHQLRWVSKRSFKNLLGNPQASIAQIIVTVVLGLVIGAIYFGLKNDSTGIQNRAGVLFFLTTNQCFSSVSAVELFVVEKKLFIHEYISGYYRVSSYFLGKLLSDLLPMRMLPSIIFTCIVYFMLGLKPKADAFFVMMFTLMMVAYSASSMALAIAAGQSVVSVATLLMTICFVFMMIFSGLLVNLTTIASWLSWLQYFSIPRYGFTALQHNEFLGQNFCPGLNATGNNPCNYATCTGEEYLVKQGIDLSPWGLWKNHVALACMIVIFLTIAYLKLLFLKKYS

For data set [2], the target named is T2, P-gp (Homo sapiens, UniProt P08183).
T2 construct: gene ABCB1; crude membrane protein isolated from High Five insect cells
T2 sequence (P08183 whole entry): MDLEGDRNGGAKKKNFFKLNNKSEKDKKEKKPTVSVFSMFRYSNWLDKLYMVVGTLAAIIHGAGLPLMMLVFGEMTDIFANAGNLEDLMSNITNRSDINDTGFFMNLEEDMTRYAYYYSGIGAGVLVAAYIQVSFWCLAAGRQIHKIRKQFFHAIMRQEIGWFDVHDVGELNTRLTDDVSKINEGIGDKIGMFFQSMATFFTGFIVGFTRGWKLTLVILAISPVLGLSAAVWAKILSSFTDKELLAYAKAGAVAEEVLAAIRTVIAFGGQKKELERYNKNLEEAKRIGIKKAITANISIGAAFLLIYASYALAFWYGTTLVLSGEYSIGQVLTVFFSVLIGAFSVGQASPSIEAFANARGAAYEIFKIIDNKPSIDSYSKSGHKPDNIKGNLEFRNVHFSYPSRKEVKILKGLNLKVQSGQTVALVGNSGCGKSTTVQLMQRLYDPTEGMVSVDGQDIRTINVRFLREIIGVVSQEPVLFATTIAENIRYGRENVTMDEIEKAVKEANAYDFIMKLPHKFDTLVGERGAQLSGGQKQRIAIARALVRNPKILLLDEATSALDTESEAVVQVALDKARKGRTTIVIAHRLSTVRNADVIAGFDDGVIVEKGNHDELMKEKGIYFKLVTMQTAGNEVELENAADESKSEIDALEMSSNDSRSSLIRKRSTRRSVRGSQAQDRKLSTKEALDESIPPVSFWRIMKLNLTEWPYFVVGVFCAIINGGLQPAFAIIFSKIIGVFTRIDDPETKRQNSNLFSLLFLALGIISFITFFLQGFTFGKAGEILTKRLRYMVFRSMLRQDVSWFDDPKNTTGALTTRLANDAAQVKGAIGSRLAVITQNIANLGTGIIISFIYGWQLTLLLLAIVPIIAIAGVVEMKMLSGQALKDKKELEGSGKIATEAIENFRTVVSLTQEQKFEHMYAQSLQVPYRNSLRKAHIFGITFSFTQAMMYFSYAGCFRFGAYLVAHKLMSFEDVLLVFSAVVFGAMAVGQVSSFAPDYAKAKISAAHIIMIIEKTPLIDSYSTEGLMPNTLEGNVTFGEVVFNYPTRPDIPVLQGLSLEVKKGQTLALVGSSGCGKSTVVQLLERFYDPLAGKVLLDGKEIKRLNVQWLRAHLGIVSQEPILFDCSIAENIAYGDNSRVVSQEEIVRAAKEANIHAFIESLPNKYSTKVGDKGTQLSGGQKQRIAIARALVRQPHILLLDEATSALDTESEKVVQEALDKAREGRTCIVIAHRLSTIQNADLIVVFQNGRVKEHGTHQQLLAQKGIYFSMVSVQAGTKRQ
Briefly: inhibition of ceralasertib-stimulated P-gp ATPase in crude membranes.

For `O=C1c2c(O)ccc(O)c2C(=O)c2c(NCCNCCO)ccc(NCCNCCO)c21` [mitoxantrone], the “radiolabelled efflux/accumulation in NCI-H460/TPT10 cells, reversed by Ko143” value in data set [1] was “BCRP-overexpressing NCI-H460/TPT10 cells have decreased intracellular level of [^3H]-mitoxantrone, which can be reversed by Ko143”.
As for `CN1CCC(COc2cnc(-c3cccc(Cn4nc(-c5cccc(C#N)c5)ccc4=O)c3)nc2)CC1` [tepotinib], the “inhibition of ceralasertib-stimulated P-gp ATPase in crude membranes” value in data set [2] was “Tepotinib, a P-gp ATPase inhibitor, was able to significantly block the activation caused by ceralasertib”.
